The values below come from ChEMBL document CHEMBL4706719, “Androgen Receptor Degradation for Therapeutic Intervention of Prostate Cancer Drug Resistance” (ACS Med Chem Lett, 2021).

The structures appear in SMILES notation.

The test addresses Androgen receptor (Homo sapiens) (UniProt P10275). As to the kind of experiment: In vivo inhibition of AR in castrated CB17 mouse xenografted with human VCaP cells at 10 mg/kg, po via gavage measured after 16 hrs by ELISA relative to control.

The molecule `CC1(C)[C@H](NC(=O)c2ccc(CCN3CCN(c4ccc5c(c4)C(=O)N(C4CCC(=O)NC4=O)C5=O)CC3)cc2)C(C)(C)[C@H]1Oc1ccc(C#N)c(Cl)c1` (stereo partly specified) gave an inhibition greater than 50%. Next, `CC1(C)[C@H](NC(=O)c2ccc(N3CCC(CN4CCN(c5cc6c(cc5F)C(=O)N(C5CCC(=O)NC5=O)C6=O)CC4)CC3)c(F)c2)C(C)(C)[C@H]1Oc1ccc(C#N)c(Cl)c1` (stereo partly specified): greater than 50%. Under `CC1(C)[C@H](NC(=O)c2ccc(N3CCC(CN4CCN(c5cc6c(cc5F)C(=O)N(C5CCC(=O)NC5=O)C6=O)CC4)CC3)nn2)C(C)(C)[C@H]1Oc1ccc(C#N)c(Cl)c1` (stereo partly specified) stands greater than 50%; under `CC1(C)[C@H](NC(=O)c2ccc(N3CCN(CCCCCOc4ccc5c(c4)C(=O)N(C4CCC(=O)NC4=O)C5=O)CC3)nc2)C(C)(C)[C@H]1Oc1ccc(C#N)c(C#N)c1` (stereo partly specified), greater than 50%.

With `CC(C)N(CC1CCN(c2ccc(C(=O)N[C@H]3C(C)(C)[C@H](Oc4ccc(C#N)c(Cl)c4)C3(C)C)cc2)CC1)[C@H]1C[C@H](Oc2ccc3c(c2)C(=O)N(C2CCC(=O)NC2=O)C3=O)C1` (stereo partly specified), the inhibition is greater than 50%.

Molecule `CC1(C)[C@H](NC(=O)c2ccc(N3CCC(CN4CCN(c5ccc6c(c5F)C(=O)N(C5CCC(=O)NC5=O)C6=O)CC4)CC3)cc2)C(C)(C)[C@H]1Oc1ccc(C#N)c(Cl)c1` (stereo partly specified) came in with an inhibition greater than 50%. Under `CC1(C)[C@H](NC(=O)c2ccc(N3CCN(CCCOc4ccc5c(c4)C(=O)N(C4CCC(=O)NC4=O)C5=O)CC3)cc2)C(C)(C)[C@H]1Oc1ccc(C#N)c(Cl)c1` (stereo partly specified) stands greater than 50%; under `CC1(C)[C@H](NC(=O)c2ccc(N3CCN(CCCCCOc4ccc5c(c4)C(=O)N([C@H]4CCC(=O)NC4=O)C5=O)CC3)nc2)C(C)(C)[C@H]1Oc1ccc(C#N)c(Cl)c1`, greater than 50%.

The molecule `CC1(C)[C@H](NC(=O)c2cnc(N3CCN(CCCOc4ccc5c(c4)C(=O)N(C4CCC(=O)NC4=O)C5=O)CC3)cn2)C(C)(C)[C@H]1Oc1ccc(C#N)c(Cl)c1` (stereo partly specified) came in with an inhibition greater than 50%. Under `CC1(C)[C@H](NC(=O)c2cc(F)c(CCOCCCN3CCN(c4ccc5c(c4)C(=O)N(C4CCC(=O)NC4=O)C5=O)CC3)c(F)c2)C(C)(C)[C@H]1Oc1ccc(C#N)c(Cl)c1` (stereo partly specified) stands less than 50%. Under `CC1(C)[C@H](NC(=O)c2ccc(N3CCC(CN4CCN(c5ccc6c(c5)C(=O)N(C5CCC(=O)NC5=O)C6=O)CC4)CC3)nn2)C(C)(C)[C@H]1Oc1ccc(C#N)c(Cl)c1` (stereo partly specified) stands less than 50%.
